Data taken from patent US20230041211A1, “DECREASING TOXICITY OF TERPENES AND INCREASING THE PRODUCTION POTENTIAL IN MICRO-ORGANISMS” (BASF SE, priority 2019, published 2023).
pEC50: −log10 of the molar value. Converted amounts (≈) assume the structure as drawn. Read-outs that look alike come from different tables or passages of the source.

How the values were obtained:
[1] = cited from earlier work
[2] = tested on: adapted E. coli strains (Isolate A to C, Mut T6 A); format: cell-based, Escherichia coli; conditions: Isobutanol 65 mM, Prenol 40 mM, Butanol 7.5 g/L, Vanillin 1 g/L; Geraniol concentration not given
Protocol: To investigate the mode of action of the tolerance trait, chemicals with similar properties were tested.
To assess the limitations of the tolerance mechanism, tolerance against three additional chemicals was tested.
(§1) On the next day 25 mL of medium in 250 mL baffled flasks with Teflon® liner screw cabs were inoculated to an OD of 0.2 and incubated at 200 rpm. The terpenoid stress was added to the specified concentration. Before the cell-culture reached stationary phase, part of the culture was transferred to fresh medium in a fresh flask with the terpenoid. The mean culture growth rate was determined by comparing the initial OD and the culture OD before passaging.
(§2) Growth rates were determined by transforming the OD-values of each experiment with the natural logarithm. In the linear regime of growth a line was fit to the data and the slope was determined, which is equal to the growth rate. Growth rates were determined for each flask individually and the growth rate of each condition is given as the mean and standard deviation of three biological replicates.

[3] = tested on: E. coli MG1655 wild-type; assay: Toxicity assay: growth rate of wild-type E. coli in M9 medium with the chemical in sealed baffled flasks; format: cell-based, Escherichia coli; conditions: for pEC50: read-out: concentration where growth is 50% inhibited (EC50), half maximal inhibitory concentration
Protocol: The tolerance against Isoprenol was confirmed with the established toxicity assay of growth in M9 medium with Isoprenol in baffled sealed 250 mL flasks. To investigate the mode of action of the tolerance trait, chemicals with similar properties were tested.
as §1, §2
A linear interpolation of the two data-points adjacent to the half-maximal growth rate (MIC50) was used to estimate the compound concentration of half-maximal growth rate. If the corresponding standard-deviations of the growth rates were available the standard error of the MIC50 was computed by error propagation.

[4] = cited from earlier work; for loqP: Table 3B
[5] = tested on: engineered E. coli strains (ΔyghB, ΔmarC, Δrob, rob H48fs); format: cell-based, Escherichia coli
Description: We began the investigation of the mutations discovered in the final phenotype by testing the knock-out strains of the most promising gene-targets from the readily available Keio collection. The Keio collection is implemented in the BW25113 background which we subsequently used as reference for tolerance testing when using strains derived from the Keio collection. Compared to MG1655 the BW25113 strain is auxotroph for arabinose and rhamnose. Since glucose is the sole carbon source in our growth-assays this should not impact the physiology of tolerance.
Knock-out strains were constructed by amplification of resistance cassette with 25 bp overlap from corresponding Keio strains (Primers 3+4, 5+6 and 7+8). The PCR products carrying a homologous 25 bp sequence and a kanamycin resistance were used to transform E. coli MG1655 using standard procedures (Baba et al., 2006). For over-expression plasmids target genes were amplified with a 25 bp homology to the pAH030 overexpression plasmid. The Plasmid was linearized using the Spel restriction site and the PCR-product containing the gene of interested was inserted using Gibson assembly (Gibson et al., 2009).
Knock out strains were prepared using DNA-fragments isolated from the corresponding Keio collection strains. Recombination was carried out using a standard RED/ET kit (Genebridges Red/ET Kit, 2019).
as §2

[6] = tested on: E. coli MG1655 wild-type; conditions: cited from earlier work
[7] = tested on: Escherichia coli, Saccharomyces cerevisae, Pseudomonas putida and Rhodobacter sphaeroides; assay: Toxicity of terpenes on unmodified organisms; conditions: all four organisms
[8] = tested on: Escherichia coli, Saccharomyces cerevisae, Pseudomonas putida and Rhodobacter sphaeroides

Compound: C=CC(C)(O)CCC=C(C)C (centres unmarked) [Linalool]
- Solubility ([1]; solubility in water, Table 3B): 1.5 mg/mL (≈ 9.72 mM)

Compound: CC(C)CO [Isobutanol]
- tolerance of adapted strains compared to wild-type [2]: All strains exhibit an increased tolerance
- pEC50 ([3]; Escherichia coli, MG1655, wild-type strain): 1.19
- loqP [4]: 0.8

Compound: CCCC(=O)OCC [Ethyl butanoate]
- loqP [4]: 1.77

Compound: COc1cc(C(=O)O)ccc1O [Vanillic Acid]
- loqP [4]: 1.43

Compound: COc1cc(C=O)ccc1O [Vanillin]
- tolerance of adapted strains compared to wild-type [2]: significantly increased growth rate
- Wild-type growth rate ([3]; 1.5 g/L Vanillin (FIG. 10B)): 0.23 h⁻¹
- EC50 ([3]; Escherichia coli, MG1655, wild-type E. coli, own experimental set-up, read-out: experimental EC50 / half-maximal growth repression): 1000 to 1500 mg/L
- growth rate reduced to fraction of wild-type growth rate (no complete growth inhibition) ([3]; wild-type E. coli MG1655, concentration regime tested (FIG. 10A)): ⅓
- Solubility ([1]; solubility in water, Table 3B): 10 mg/mL (≈ 65.7 mM)
- effect of marC knock-out under Vanillin stress ([5]; ΔmarC, 1.5 g/L Vanillin): no significant positive effect
- increase of tolerance compared to wild-type ([5]; Δrob complemented with rob H48fs, 1.5 g/L Vanillin): 36%
- increased growth rate ([5]; Δrob rob H48fs plus marC knock-out, 1.5 g/L Vanillin): 28%
- increase of growth rate ([5]; Δrob, 1.5 g/L Vanillin): 8%
- additional faster growth ([5]; ΔyghB complemented with yghB expression, versus ΔyghB, 1.5 g/L Vanillin): 3%
- increase of growth rate ([5]; ΔyghB, 1.5 g/L Vanillin): 18%

Compound: CC(C)=CCCC(C)=CCCC(C)=CCO [Farnesol]
- Solubility ([1]; solubility in water, Table 3B): 0.05 mg/mL (≈ 0.225 mM)
- loqP [4]: 4.16

Compound: CC(C)=CCO [Prenol]
- tolerance of adapted strains compared to wild-type [2]: only strain isolate A exhibited an increased tolerance
- pEC50 ([3]; wild-type strain): 1.40
- loqP [4]: 0.91

Compound: Butanol
- tolerance of adapted strains compared to wild-type [2]: increased tolerance
- Wild-type growth rate ([3]; 5 g/L Butanol (FIG. 9B)): 0.25 h⁻¹
- experimental EC50 / half-maximal growth repression ([3]; wild-type E. coli, own experimental set-up): ~5000 mg/L
- literature value for half-maximal concentration [6]: 7.5 g/L
- increased growth rate ([5]; double knock out rob and marC with rob H48fs expression, 5 g/L Butanol): 41%
- increase of tolerance (growth rate vs wild-type) ([5]; ΔmarC, 5 g/L Butanol): 32%
- increase of tolerance (growth rate vs wild-type) ([5]; Δrob with leaky rob H48frameshift expression, 5 g/L Butanol): 34%
- increase of tolerance (growth rate vs wild-type) ([5]; Δrob, 5 g/L Butanol): about 25%
- increase of relative fitness ([5]; ΔyghB complemented with yghB plasmid, 0 μM IPTG, 5 g/L Butanol): about 11%
- effect of yghB knock-out on tolerance ([5]; ΔyghB, 5 g/L Butanol): decreases tolerance

Compound: CC(C)=CCC/C(C)=C/CO [Geraniol]
- tolerance of adapted strains compared to wild-type [2]: highly elevated susceptibility
- Solubility ([1]; solubility in water, Table 3B): 0.68 mg/mL (≈ 4.41 mM)
- toxicity on unmodified organisms [7]: toxic effects

Compound: C=C(C)[C@H]1CC=C(C)CC1 [Limonene]
- loqP [4]: 4.571

Compound: C=C(C)C1CC=C(C)C(=O)C1 (single isomer, unassigned; (-)) [(-)-Carvone]
- loqP [4]: 2.71

Compound: CC(C)=CCCC(C)=CC=O [Citral]
- toxicity on unmodified organisms [7]: toxic effects
- loqP [4]: 2.9

Compound: C=C(C)CCO [Isoprenol, 3-methyl-3-buten-1-ol]
- growth of wild-type E. coli cells ([3]; 60 to 80 mM Isoprenol concentration regime): not able to grow
- Solubility ([1]; Table A): 90 mg/mL (≈ 1040 mM)
- Solubility ([1]; solubility in water, Table 3B): 90 mg/mL (≈ 1040 mM)
- toxicity on unmodified organisms [7]: toxic effects
- decrease of fitness ([5]; ΔyghB strain of the Keio collection (BW25113), Isoprenol stress): about 30%
- loqP [4]: 0.89
- logP ([4]; Table A): 0.89

Compound: CC1CCC(C(C)C)C(O)C1 (centres unmarked) [Menthol]
- toxicity on unmodified organisms [8]: toxic effects
- loqP [4]: 3.2

Compound: CCOC(=O)CC [Ethyl Propionate]
- loqP [4]: 1.21

Compound: CC(=O)CCc1ccc(O)cc1 [4-(4-Hydroxyphenyl)-2-butanone]
- loqP [4]: 1.5
